Literature values as cited in patent US9187467B2, “2-phenyl benzothiazole linked imidazole compounds as potential anticancer agents and process for the preparation thereof” (Council of Scientific and Industrial Research, priority 2012, dated 2015).

Columns and labels:
Set-up in all cases: unit not given here
CCRF-CEM = details: previous compounds (U.S. Pat. No. 7,384,966); cited from earlier work
HL-60 (TB) = details: previous compounds (U.S. Pat. No. 7,384,966); cited from earlier work
K-562 = details: previous compounds (U.S. Pat. No. 7,384,966); cited from earlier work
MOLT-4 = details: previous compounds (U.S. Pat. No. 7,384,966); cited from earlier work
A549/ATCC = details: previous compounds (U.S. Pat. No. 7,384,966); cited from earlier work
EKVX = details: previous compounds (U.S. Pat. No. 7,384,966); cited from earlier work
HOP-62 = details: previous compounds (U.S. Pat. No. 7,384,966); cited from earlier work
NCI-H23 = details: previous compounds (U.S. Pat. No. 7,384,966); cited from earlier work
NCI-H522 = details: previous compounds (U.S. Pat. No. 7,384,966); cited from earlier work
SW-620 = details: previous compounds (U.S. Pat. No. 7,384,966); cited from earlier work
SF-268 = details: previous compounds (U.S. Pat. No. 7,384,966); cited from earlier work
SF-295 = details: previous compounds (U.S. Pat. No. 7,384,966); cited from earlier work
SF-539 = details: previous compounds (U.S. Pat. No. 7,384,966); cited from earlier work
SNB-19 = details: previous compounds (U.S. Pat. No. 7,384,966); cited from earlier work
SNB-75 = details: previous compounds (U.S. Pat. No. 7,384,966); cited from earlier work
U251 = details: previous compounds (U.S. Pat. No. 7,384,966); cited from earlier work
OVCAR-3 = details: previous compounds (U.S. Pat. No. 7,384,966); cited from earlier work
OVCAR-8 = details: previous compounds (U.S. Pat. No. 7,384,966); cited from earlier work
NCI/ADR-RES = details: listed as head printed RES (second line of NCI/ADR-RES); previous compounds (U.S. Pat. No. 7,384,966); cited from earlier work
786-0 = details: previous compounds (U.S. Pat. No. 7,384,966); cited from earlier work
ACHN = details: previous compounds (U.S. Pat. No. 7,384,966); cited from earlier work
CAKI-1 = details: previous compounds (U.S. Pat. No. 7,384,966); cited from earlier work
SN12C = details: previous compounds (U.S. Pat. No. 7,384,966); cited from earlier work
UO-31 = details: previous compounds (U.S. Pat. No. 7,384,966); cited from earlier work
PC-3 = details: previous compounds (U.S. Pat. No. 7,384,966); cited from earlier work
DU-145 = details: previous compounds (U.S. Pat. No. 7,384,966); cited from earlier work
MDA-MB-231/ATCC = details: previous compounds (U.S. Pat. No. 7,384,966); cited from earlier work
HS 578T = details: previous compounds (U.S. Pat. No. 7,384,966); cited from earlier work
BT-549 = details: previous compounds (U.S. Pat. No. 7,384,966); cited from earlier work
LOX IMVI = details: previous compounds (U.S. Pat. No. 7,384,966); cited from earlier work
MALME-3M = details: previous compounds (U.S. Pat. No. 7,384,966); cited from earlier work
M14 = details: previous compounds (U.S. Pat. No. 7,384,966); cited from earlier work
UACC-257 = details: previous compounds (U.S. Pat. No. 7,384,966); cited from earlier work
UACC-62 = details: previous compounds (U.S. Pat. No. 7,384,966); cited from earlier work

Measured: Log10GI50

COc1ccc(-c2nc3ccc(F)cc3s2)cc1OC [Compound 3d]
>−4.0: all assays above
